Assay results: patent publication US8088605B2, “Exopolysaccharides delivery system for active molecules” (Technologies Biolactics Inc., priority 2002, dated 2012)
Entries after “also recorded” stand apart in the source; their conditions may differ.

Columns and labels:
[1] = system: IEC-6 rat normal small intestine epithelial cells; experiment: Survival of IEC-6 cells with 5-Fu and EPS, Alamar Blue; assay type: cell-based; set-up: unit not given here; conditions: three days exposure
Procedure: (§1) The in vitro toxicity of the exopolysaccharide micelles was tested by incubating the micelles with a wide range of cell lines for 4-hour, 8-hour, 72-hour and 96-hour periods. The XTT™ or Alamar Blue™ assays were used to quantify the survival rates in the presence of the exopolysaccharide micelles. The capability of the exopolysaccharide to deliver an active molecule was first tested in vitro using 5-Fluorouracil (5-Fu) as a model active molecule. […] The 5-Fu/exopolysaccharide formulation was incubated with either B16F10 (murine skin melanoma), Caco-2 (human colon adenocarcinoma) or IEC-6 (rat epithelial small intestine) cells over 72-hour to 96-hour. Vital dyes (XTT or Alamar Blue) were added to supernatants for a period of 4 hours. Absorbance values were collected and plotted to evaluate the survival rate of the cells to the treatment.
(§2) Caco-2, IEC-6 and melanocytes B16 cells were cultured in DMEM supplemented with 10% FBS. […] The cells were grown in a CO2 incubator for 4 extra days. Cell survival was assessed with XTT™ according to manufacturers recommendation. […] The data are as follows:
[NB073]. Percentages of EPS are expressed in (w/v).

[2] = system: Caco-2 human colon adenocarcinoma cells in proliferation; experiment: Survival of Caco-2 cells in proliferation with 5-Fu and EPS, XTT; assay type: cell-based; conditions: four days exposure
Procedure: as §1, §2
(§3) Percentages of EPS are expressed in (w/v).

[3] = system: Caco-2 human colon adenocarcinoma cells differentiated; experiment: Survival of differentiated Caco-2 cells with 5-Fu and EPS, XTT; assay type: cell-based; conditions: four days exposure
Procedure: as §1, §2, §3

[4] = system: B16F10 murine skin melanoma cells; experiment: Survival of B16F10 cells with 5-Fu and EPS, XTT; assay type: cell-based; conditions: four days exposure
Procedure: as §1, §2, §3

B16 cells [5] = experiment: Mice grafted i.p. with B16 cells treated with 5 FU/EPS; assay type: in vivo, Balb/c mice
Procedure: Tumor cells were trypsinized and washed 3 times with PBS. Cells (1×10E6) were injected i.p. to Balb/c mice to induce a cancer in the peritoneal cavity. […] This highlighting again that EPS are not inert and may contribute to the therapeutic index.

[6] = Fluorescein pharmacokinetic in rats, oral; assay type: in vivo, Wistar female rats; set-up: unit not given here; conditions: fluorescein 1 mg/kg oral
Procedure: Fluorescein (FL) pharmacolinetic on unfasten Wistar female rats of 200 g and 8 weeks of age. Fluorescein concentration is 1 mg/kg. […] Fluorescein is added to the latter solutions and vortexed. Formulations are fed to the animals with a canula. 200 μl blood samples are collected through the jugular vein every 30 minutes for 2.5 hours. A final bleeding is made at 3.5 h. Plasma are collected immediately after centrifugation (10 min @ 1300 g). Plasma are frozen on dry ice until further analysis: 50 μl of plasma are diluted in 550 μl of saline 0.7% (w/v) and analyzed with a Varian Eclipse Spectrofluorometer (Excitation: 495 nm Emission: 515 nm). Concentrations were determined on a fluorescein standard curve (FL diluted in saline 0.7% and 50 μl of normal serum as in the sample analysis).

B16 cells [7] = experiment: Intramuscular B16 tumor formation after i.m. injection of paclitaxel-treated cells; assay type: in vivo; conditions: mice with tumor / mice in group; cells treated 3 hrs before i.m. injection
Procedure: (§4) Cells (50000 cells per 50 μl injections) for a concentration of 10^6 cells per ml. The remaining of the test was performed as follows: • Cells from 1XT75 (80% confluence) are trypsinized with 2 ml trypsin, diluted in 12 ml media, spun down, rinsed once in 5 ml PBS, and resuspended in 2 ml PBS. Cells are then counted and concentration adjusted to 10^6 cells per ml. • P1 treatment: Add 200 μl P1 stock and […] of cell suspension (10^6 cells) and incubate at room temperature 3 hrs. Final Paclitaxel=1 mM, DMSO=1%. • P2 treatment: Add 200 μl P2 stock to 1.8 ml of cell suspension (10^6 cells) and incubate at room temperature 3 hrs. […] No growth was observed from either group after 2 weeks in culture.

B16 cells [8] = experiment: Growth in tissue culture of paclitaxel-treated B16 cells; assay type: cell-based; conditions: replated after treatment, 2 weeks in culture
Procedure: as §4

[9] = Rhodamine 123 pharmacokinetic in rats, oral; assay type: in vivo, Wistar female rats; conditions: 5 mg/kg oral
Procedure: The pharmacokinetic of Rhodamine 123 (R123) was performed on unfasten Wistar female rats of 200 g and 8 weeks of age. Rhodamine concentration is 5 mg/kg. […] Rhodamine is added to the latter solutions and vortexed. Formulations are fed to the animals with a canula and 200 μl blood samples are collected through the jugular vein every hour for 4 hours (plus 1 sample at 0.5 h). Plasma are collected immediately after centrifugation (10 min @ 13000 g). Plasma are frozen on dry ice until further analysis: 50 μl of plasma are diluted in 550 μl of saline 0.7% (w/v) and analyzed with a Varian Eclipse™ Spectrofluorometer (Excitation: 505 nm Emission: 540 nm). Concentrations were determined on a Rhodamine 123 standard curve (R123 diluted in saline 0.7% and 50 μl of normal serum as in the sample analysis).

## O=c1[nH]cc(F)c(=O)[nH]1 [5-Fu alone, 5-Fluorouracil]
[1]; Table 5, 5-Fu 5 μg/ml
  Survival of IEC-6 cells: 16.9 ± 6.4
[1]; Table 5, 5-Fu 50 μg/ml
  Survival of IEC-6 cells: 28.0 ± 4.6
[1]; Table 5, 5-Fu 250 μg/ml
  Survival of IEC-6 cells: 35.4 ± 8.2
[1]; Table 5, 5-Fu 500 μg/ml
  Survival of IEC-6 cells: 33.4 ± 3.5
[1]; Table 6, 5-Fu 1 μg/ml
  Survival of IEC-6 cells: 78.0 ± 3.0
[1]; Table 6, 5-Fu 10 μg/ml
  Survival of IEC-6 cells: 75.4 ± 2.9
[1]; Table 6, 5-Fu 50 μg/ml
  Survival of IEC-6 cells: 81.8 ± 2.1
[1]; Table 6, 5-Fu 100 μg/ml
  Survival of IEC-6 cells: 80.2 ± 0.9
[2]; 5-Fu 1 μg/ml
  Survival of Caco-2 cells in proliferation: 74.1 ± 1.9
[2]; 5-Fu 10 μg/ml
  Survival of Caco-2 cells in proliferation: 78.6 ± 2.4
[2]; 5-Fu 50 μg/ml
  Survival of Caco-2 cells in proliferation: 80.3 ± 1.8
[2]; 5-Fu 100 μg/ml
  Survival of Caco-2 cells in proliferation: 52.6 ± 4.8
[3]; 5-Fu 1 μg/ml
  Survival of Caco-2 cells differentiated: 105.7 ± 4.2
[3]; 5-Fu 10 μg/ml
  Survival of Caco-2 cells differentiated: 85.6 ± 8.8
[3]; 5-Fu 50 μg/ml
  Survival of Caco-2 cells differentiated: 99.6 ± 6.8
[3]; 5-Fu 100 μg/ml
  Survival of Caco-2 cells differentiated: 78.1 ± 0.7
[4]; 5-Fu 1 μg/ml
  Survival of B16F10 cells: 62.6 ± 6.6
[4]; 5-Fu 10 μg/ml
  Survival of B16F10 cells: 65.4 ± 10.4
[4]; 5-Fu 50 μg/ml
  Survival of B16F10 cells: 54.9 ± 8.9
[4]; 5-Fu 100 μg/ml
  Survival of B16F10 cells: 38.8 ± 8.5
B16 cells [5]; day 0
  Tumor-free mice: 100%
B16 cells [5]; day 15, 5 FU 100 mg/kg, EPS 0.1% w/v, treatment after 4 days
  Tumor-free mice: 62.5%
B16 cells [5]; day 29, 5 FU 100 mg/kg, EPS 0.1% w/v, treatment after 4 days
  Tumor-free mice: 12.5%
B16 cells [5]; day 44, 5 FU 100 mg/kg, EPS 0.1% w/v, treatment after 4 days
  Tumor-free mice: 12.5%

## O=C1OC2(c3ccc(O)cc3Oc3cc(O)ccc32)c2ccccc21 [FL-Water, Fluorescein]
[6]; time 0.0 h
  Fluorescein concentration in plasma: 37.10
[6]; time 0.5 h
  Fluorescein concentration in plasma: 218.30
[6]; time 1.0 h
  Fluorescein concentration in plasma: 145.95
[6]; time 1.5 h
  Fluorescein concentration in plasma: 75.25
[6]; time 2.0 h
  Fluorescein concentration in plasma: 74.48
[6]; time 2.5 h
  Fluorescein concentration in plasma: 71.74
[6]; time 3.5 h
  Fluorescein concentration in plasma: 54.63

## CC(=O)O[C@H]1C(=O)[C@@]2(C)[C@H]([C@H](OC(=O)c3ccccc3)[C@]3(O)C[C@H](OC(=O)[C@H](O)[C@@H](NC(=O)c4ccccc4)c4ccccc4)C(C)=C1C3(C)C)[C@]1(OC(C)=O)CO[C@@H]1C[C@@H]2O [P1, Paclitaxel]
B16 cells [7]
  Intramuscular tumor formation: 12/15
B16 cells [8]
  Growth in tissue culture: No growth; also recorded: negative

## Rhodamine 123 [R123 - Water]
[9]; time 0.0 h
  Rhodamine 123's concentration in plasma: 2.2 ± 2.2 ng/mL
[9]; time 0.5 h
  Rhodamine 123's concentration in plasma: 20.4 ± 2.2 ng/mL
[9]; time 1.0 h
  Rhodamine 123's concentration in plasma: 20.9 ± 2.6 ng/mL
[9]; time 2.0 h
  Rhodamine 123's concentration in plasma: 15.4 ± 2.0 ng/mL
[9]; time 3.0 h
  Rhodamine 123's concentration in plasma: 10.9 ± 1.4 ng/mL
[9]; time 4.0 h
  Rhodamine 123's concentration in plasma: 11.2 ± 1.8 ng/mL
